Common to all, as to experiment: NCI-60 cell line screen, 48 h
Assay [1] deals with NCI/ADR-RES ovarian.
Assay [2] concerns UO-31 renal.
Assay [3] relates to NCI-H23 lung.
Assay [4] relates to SF-539 CNS.
The subject of assay [5] is SF-268 CNS.
In assay [6] the test system is A549 NSCLC.
Assay [7] relates to RXF 393 renal.
Assay [8] has as its system NCI-H226 lung.
In assay [9] the test system is SF-295 CNS.
Assay [10] deals with HL-60(TB) leukemia.

Values joined by “and” are separate entries in the source; they are usually repeats but may differ in a detail not shown here. Identical values can stand only once.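 Briefly, cells in 96-well plates were exposed to five compound concentrations for 48 h, and endpoints were estimated by linear interpolation. GI50 is the concentration that inhibits growth by half. TGI is the concentration that stops growth completely.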

Consider `O=C1c2cccc3c([N+](=O)[O-])ccc(c23)C(=O)N1CCCCl`, for which the GI50 in [1] is 8.42 µM; in assay [2], more than 10 µM; in assay [3], 5.07 µM; in assay [4], more than 10 µM; in [5], 3.17 µM; in assay [6], more than 10 µM. The GI50 was 3.85 µM in [7], 2.83 µM in assay [8], more than 10 µM in assay [9] and 5.18 µM in assay [10]. Also, the TGI in assay [1], in [2], in assay [3], in [4], in [5] and in [6] was more than 10 µM throughout. Also, the TGI in assay [7], in [8], in assay [9] and in assay [10] was more than 10 µM in each case.
Turning to `O=C1/C(=N/N=C(c2ccccc2)c2ccccc2)c2ccccc2-c2ccccc21`, the TGI in assay [1], in assay [2], in assay [3], in assay [4], in [5] and in assay [6] was more than 100 µM throughout. The TGI in assay [7], in assay [8], in assay [9] and in [10] was more than 100 µM throughout.
In the case of `O=c1ncc(I)c[nH]1`, the GI50 in [1], in assay [2], in assay [3], in [4], in assay [5] and in assay [6] was more than 100 µM throughout. The GI50 in [7], in assay [8], in assay [9] and in [10] was more than 100 µM in each case. Besides, the TGI in assay [1], in [2], in [3], in [4], in [5] and in [6] was more than 100 µM each time. Also, the TGI in assay [7], in assay [8], in assay [9] and in [10] was more than 100 µM each time.
As to `CC(C)C[C@H](NC(=O)[C@H](Cc1ccccc1)NC(=O)c1cnccn1)B(O)O`, the GI50 in assay [1] is 0.0613 µM; in [2] it was 0.00193 µM; in [3], 0.00175 µM; in [4] it was 0.00119 µM; in assay [5], 0.00288 µM; in [6], < 0.0112 µM and 0.00362 µM. Besides, the GI50 in assay [7] is 0.00119 µM; in [8], < 0.01 µM and 0.00089 µM; in assay [9], 0.00215 µM; in [10], 0.00296 µM. Further, the TGI in assay [2] was 0.0228 µM and 0.0179 µM; in [3], 0.183 µM and 0.0197 µM; in assay [4], < 0.01 µM and 0.00271 µM; in assay [6] it was 5.02 µM and 0.615 µM; in [7], < 0.01 µM and 0.00255 µM; in assay [8] it was < 0.01 µM and 0.00206 µM.
Consider `CCN(CC)c1ccc(CNc2cc(C)nc3ccc(OC)cc23)cc1`, for which the GI50 was 3.08 µM in assay [1]; 1.75 µM in assay [2]; 2.7 µM in assay [3]; 2.22 µM in assay [4]; 4.17 µM in [5]; 6.41 µM in [6]. The GI50 in assay [7] was 2.02 µM; in [8], 3.12 µM; in assay [9], 1.78 µM; in [10] it was 1.6 µM. Moreover, the TGI worked out at 14.3 µM in [1]; 6.23 µM in [2]; 9.8 µM in [3]; 4.36 µM in assay [4]; 16.1 µM in assay [5]; 21.2 µM in assay [6]. Moreover, the TGI in [7] turned out to be 3.87 µM; in [8], 14.4 µM; in assay [9], 3.89 µM; in assay [10], 4.23 µM.
Regarding `COc1ccc2c(c1)[n+]([O-])c(/C(C)=N/NC(N)=S)c(C)[n+]2[O-]`, the TGI in [1] is 96.5 µM; in assay [2], more than 100 µM; in [3] it was more than 100 µM; in [4], 97.9 µM; in assay [5], more than 100 µM; in [6], more than 100 µM. Further, the TGI in assay [7], in assay [8], in assay [9] and in assay [10] was more than 100 µM throughout.
Turning to `O=C(/C=C/c1ccccc1)Nc1ncc(Cc2ccccc2)s1`, the GI50 was 0.178 µM in assay [1]; 0.463 µM in assay [2]; 0.562 µM in assay [3]; 0.206 µM in assay [4]; 0.963 µM in assay [5]; 0.322 µM in assay [6]. Besides, the GI50 was 0.267 µM in assay [7], 1.16 µM in [8], 0.202 µM in assay [9] and 0.212 µM in assay [10]. Also, the TGI was 5.5 µM in assay [1]; 23.3 µM in [2]; more than 49.1 µM in assay [3]; 0.732 µM in assay [4]; more than 100 µM in [5]; more than 55.1 µM in assay [6]. Moreover, the TGI in assay [7] was 1.59 µM; in assay [8], more than 20.8 µM; in [9] it was 1.96 µM; in assay [10] it was 0.609 µM.
With `C=C(C)[C@@H]1CC[C@]2(C(=O)N3CCN(C)CC3)CC[C@]3(C)[C@H](CC[C@@H]4[C@@]5(C)C/C(=C/c6ccncc6)[C@H](O)C(C)(C)[C@@H]5CC[C@]43C)[C@@H]12`, the GI50 in assay [1] was 4.81 µM; in [2], 5.37 µM; in assay [3], 8.73 µM; in [4], 4.12 µM; in assay [5], 9.05 µM; in assay [6] it was 5.2 µM. For the same compound, the GI50 is 2.89 µM in assay [7], 7.01 µM in [8], 7.2 µM in assay [9] and 2.29 µM in [10]. In addition, the TGI was 23.2 µM in assay [1]; 21 µM in [2]; more than 100 µM in assay [3]; 16.5 µM in assay [4]; 57.6 µM in assay [5]; more than 100 µM in [6]. For the same compound, the TGI in assay [7] was found to be 10.5 µM; in assay [8], 28.9 µM; in assay [9], 25.5 µM; in assay [10], 5.58 µM.
For `COc1ccccc1CN=C1NC(=O)/C(=C/c2ccc3ncccc3c2)S1`, the GI50 in assay [1] was 11.2 µM; in assay [2] it was 7.37 µM; in assay [3], 8.65 µM; in assay [4] it was 5.28 µM; in assay [5], 7.89 µM; in assay [6], 6.93 µM. For the same compound, the GI50 in [7] is 8.75 µM; in assay [8] it was 8.43 µM; in assay [9] it was 5.7 µM; in assay [10], 10.3 µM. The TGI in assay [1] was more than 25 µM; in assay [2] it was more than 21.7 µM; in [3] it was more than 25 µM; in assay [4], more than 20.3 µM; in assay [5] it was more than 25 µM; in [6] it was more than 25 µM. Further, the TGI is more than 25 µM in [7], more than 25 µM in assay [8], more than 21 µM in [9] and more than 25 µM in [10].
`COc1ccc(C2CC(c3ccc4ccccc4c3)=NN2/C=C2\SC(=S)N(NC(=O)Cc3ccccc3Nc3c(Cl)cccc3Cl)C2=O)cc1` (stereo not given): the GI50 is 0.421 µM in assay [1]; 0.354 µM in assay [2]; 0.793 µM in [3]; 0.282 µM in assay [4]; 0.809 µM in assay [5]; 0.507 µM in assay [6]. The GI50 in assay [7] is 0.282 µM; in assay [8], 1.14 µM; in [9], 0.724 µM; in [10], 0.404 µM. Moreover, the TGI in [1] was more than 34.5 µM; in [3], more than 46.8 µM; in assay [4], 1.12 µM; in assay [5], more than 48.8 µM; in [6] it was more than 47.2 µM; in assay [7], 1.16 µM. The TGI in assay [8] was more than 32.3 µM; in assay [9] it was more than 32.7 µM; in assay [10], 2.89 µM.
For `COc1ccc(-c2cnc(SCC(=O)c3c(C)n(C)n(-c4ccccc4)c3=O)n2-c2ccc(OC)cc2)cc1`, the GI50 in assay [1], in assay [2], in [3], in [4], in [5] and in [6] was more than 50 µM each time. Besides, the GI50 in [7] was more than 50 µM; in assay [8], more than 50 µM; in assay [9], more than 50 µM; in assay [10], 36.8 µM. Also, the TGI in assay [1], in assay [2], in [3], in [4], in [5] and in [6] was more than 50 µM each time. Besides, the TGI in [7], in [8], in assay [9] and in [10] was more than 50 µM in each case.
With `C=C(c1ccc(OC)c(/C=C/C(=O)c2cc(OC)c(OC)c(OC)c2)c1)c1cc(OC)c(OC)c(OC)c1`, the GI50 in assay [1] was 0.936 µM; in assay [2], 1.07 µM; in assay [3], 1.95 µM; in assay [4], 1.41 µM; in assay [5] it was 1.46 µM; in [6], 1.81 µM. For the same compound, the GI50 was 1.11 µM in assay [7], 1.41 µM in assay [8], 2.9 µM in [9] and 2.03 µM in assay [10]. Moreover, the TGI in assay [1] stood at 4.85 µM; in assay [2] it was 2.34 µM; in assay [3] it was 4.9 µM; in assay [4], 3.05 µM; in assay [5], 3.83 µM; in assay [6], 4.51 µM. Moreover, the TGI in [7] worked out at 2.62 µM; in assay [8], 3.29 µM; in assay [9], 14.9 µM; in [10], 13.4 µM.
`Cc1ccc(C(=O)Nc2ccc(CN3CCN(C)CC3)c(C(F)(F)F)c2)cc1C#Cc1cnc(N)c2ccc(C#N)cc12`: the GI50 in assay [1] is 2.03 µM; in assay [2], 0.0224 µM; in assay [3] it was 1.1 µM; in assay [4], 3.52 µM; in assay [5] it was 0.206 µM; in assay [6], 0.917 µM. In addition, the GI50 in assay [7] is 0.0407 µM; in assay [8] it was 0.471 µM; in assay [9], 8.85 µM; in assay [10], 0.338 µM. Besides, the TGI in assay [1] was 10.1 µM; in assay [2], 2.26 µM; in assay [3], 18.2 µM; in assay [4], 12.3 µM; in [5], 17.2 µM; in [6] it was 12.8 µM. In addition, the TGI is 5.82 µM in assay [7], more than 50 µM in assay [8], more than 50 µM in assay [9] and more than 50 µM in assay [10].
Regarding `O=C(CC(O)c1cccnc1)CC(O)c1cccnc1` (stereo not given), the TGI in [1] was more than 66.1 µM; in assay [2], 32.5 µM; in assay [3] it was 52 µM; in assay [4], 53.8 µM; in assay [5] it was more than 95.9 µM; in assay [6], 47.7 µM. For the same compound, the TGI in assay [7] was 32.1 µM; in assay [8], more than 100 µM; in assay [9], 30.7 µM; in assay [10], more than 100 µM.
Regarding `C/C(=N\NC(=O)c1cccc(S(=O)(=O)N2CCN(C)CC2)c1)c1cc(Cl)ccc1O`, the GI50 in [1] was 1.33 µM; in assay [2], 0.184 µM; in assay [3] it was 0.74 µM; in assay [4], 1.06 µM; in assay [5], 0.933 µM; in assay [6], 0.761 µM. Also, the GI50 was 2.8 µM in assay [7], 0.713 µM in [8], 0.998 µM in [9] and 0.717 µM in [10]. Also, the TGI in [1] is 14.9 µM; in assay [2], 12.6 µM; in assay [3], 45 µM; in [4], 21.8 µM; in assay [5], more than 63.8 µM; in assay [6], more than 100 µM. In addition, the TGI is 23.9 µM in [7], 8.42 µM in assay [8], 21.9 µM in assay [9] and 17.1 µM in assay [10].
Take `CC[C@]12C=CCN3CC[C@@]4(c5ccc(OC)cc5N(C)[C@H]4[C@@](O)(C(=O)OC)[C@@H]1OC(=O)CCCC[P+](c1ccccc1)(c1ccccc1)c1ccccc1)[C@@H]32`: the GI50 is more than 100 µM in assay [1]; 12.8 µM in [2]; 1.07 µM in [3]; 0.993 µM in assay [4]; 0.644 µM in [5]; 1.86 µM in assay [6]. Moreover, the GI50 in [7] is 0.635 µM; in [8] it was 2.12 µM; in assay [9] it was 2.65 µM; in assay [10], 0.34 µM. Further, the TGI is more than 100 µM in [1]; 26.4 µM in [2]; 10.5 µM in assay [3]; 12.1 µM in assay [4]; 3.98 µM in assay [5]; 10.2 µM in assay [6]. Moreover, the TGI amounted to 2.72 µM in assay [7], 9.74 µM in [8], 9.04 µM in assay [9] and 1.15 µM in assay [10].

For the origin of these results see PubChem BioAssay (NCI).
